{"source": "paper PMC4585929", "about": "“Cargo Delivery into the Brain by in vivo identified Transport Peptides” (Scientific Reports, 2015)", "key": {"[1]": {"test": "CSF sampling model: phage recovered from CSF of cisterna magna cannulated conscious rats after i.v. injection (plaque counting)", "assay_type": "in vivo, rat", "description": "(§1) The cisterna magna (CM) was cannulated using modification of methods previously described. Anesthetized Wistar rats (200–350 g) were mounted onto a stereotaxic device and a median incision was made on the top of the shaved and aseptically prepared skin of head to expose the skull. Two holes were drilled at the parietal region and mounting screws were secured in the holes. An additional hole was drilled at the external occipital crest and used to stereotactically guide the stainless steel cannula into the CM. Dental cement was applied around the cannula and the screws to hold it in place. After light curing and solidification of the cement, the skin wound was sutured with a 4/0 supramid yarn. Correct placement of the cannula is confirmed by spontaneous flow of cerebrospinal fluid (CSF). The rats were removed from the stereotaxic apparatus, received appropriate post-operative care and analgesic treatment and allowed to recover for at least one week until no sign of blood in the CSF was observed. Wistar rats (Crl:WI/Han) were obtained from Charles River (France). All rats were kept under specific pathogen-free conditions. All animal experiments were approved by the Swiss Veterinary Office Basel-Stadt and were carried out in accordance with the animal permission #2474 (Assessment of active brain transport by measuring the level of therapeutic candidates in the rat CSF and brain).\nThe CM cannulated conscious rats were gently held in the hand. The mandrain was pulled out of the cannula and 10ul of the spontaneous flowing CSF was collected. Only clear CSF samples with no sign of blood contamination or discoloration were included in this study since patency of the cannula was eventually compromised. In parallel ∼10–20 μL blood from a small incision of the tip of the tail was collected in heparin (Sigma-Aldrich) containing tubes. CSF and blood was collected at different time points after intravenous injection of the T7 bacteriophages. Prior to collecting every CSF sample ∼5–10 μL of fluid was discarded, which represents the catheter dead volume.\nThe amplified phages underwent 2–3 rounds of endotoxin removal using endotoxin removal beads (Miltenyi Biotec) before intravenous (i.v.) injection (500 ul/animal). 2 × 10^12 phages were injected in the first, 2 × 10^10 phages were injected in the second and 2 × 10^9 phages were injected per animal in the third and fourth round of selection. The phage contents in the CSF and blood samples harvested at the indicated time-points were determined by a plaque counting assay according to the manufacturer’s instructions (T7Select System Manual). Phage selection was carried out by i.v. tail vein injection of the purified library or by re-injection of the CSF recovered phages of the previous selection round, and 10 min, 30 min, 60 min, 90 min, 120 min, 180 min respectively 240 min later CSF and blood samples were collected. A total of four rounds of in vivo panning were performed in which two selection branches were kept and analyzed separately during the first three selection rounds. All CSF recovered phage inserts of the first two selection rounds were subjected to 454/Roche pyrosequencing whereas all CSF recovered clones of the last two selection rounds were manually sequenced. All blood harvested phages of the first selection round were also 454/Roche pyrosequenced. For the injection of the phage clones the selected phages were amplified in E. coli (BL5615) on 500 cm^2 plates at 37 °C for 4 hours. The individually picked and manually sequenced clones were amplified in TB medium. After phage extraction, purification and endotoxin removal steps (described above) 2 × 10^10 phages/animal in 300 μl were i.v. injected into one tail vein.\nSupplementary Figure 3 – Pharmacokinetic profiles of wt T7 phage in the CSF and blood\ncompartments. Determination of the clearance of wt phage from the blood and their occurrence in\nthe CSF compartment over time. […]"}, "[2]": {"test": "Blood pharmacokinetics of i.v. injected T7 phage in cisterna magna cannulated rats (plaque counting)", "assay_type": "in vivo, rat", "description": "as §1\nThe CM cannulated conscious rats were gently held in the hand. The mandrain was pulled out of the cannula and 10ul of the spontaneous flowing CSF was collected. […]\nThe amplified phages underwent 2–3 rounds of endotoxin removal using endotoxin removal beads (Miltenyi Biotec) before intravenous (i.v.) injection (500 ul/animal). […] The phage contents in the CSF and blood samples harvested at the indicated time-points were determined by a plaque counting assay according to the manufacturer’s instructions (T7Select System Manual). […] A total of four rounds of in vivo panning were performed in which two selection branches were kept and analyzed separately during the first three selection rounds. […]"}, "brain capillaries": {"tested_on": "brain capillaries", "test": "Immunohistochemistry of phage particles in rat brain 1 hour after i.v. injection", "assay_type": "in vivo", "details": "2 × 10^10 phage/animal, FITC anti-T7 antibody", "method": "Selected phage clones and insertless phage were i.v. injected via tail vein (2 × 10^10 phage/animal in 300 μl PBS). 10 minutes before perfusion and subsequent fixation 100 ul DyLight594 labeled lectin (Vector Laboratories Inc., DL-1177) was i.v. injected into the same animals. 60 minutes after phage administration rats were perfused through the heart with 50 ml PBS followed by 50 ml 4% PFA/PBS. Brain samples were additionally fixed by 4% PFA/PBS overnight and immersed in 30% sucrose at 4 °C overnight. Samples were frozen quickly in O.C.T. compound. Frozen samples were subject to immunohistochemistry, performed on 30 um freezing sections blocked with 1% BSA for 2 hours at room temperature and incubated with a polyclonal FITC labeled antibody against the T7 phage (Novus NB 600-376A) overnight at 4 °C. Finally, the sections were then washed 3 times with PBS and observed with a laser confocal microscope (Leica TCS SP5)."}, "[3]": {"details": "wt T7 phage, 1x10^10 phage i.v., 4 cannulated rats, plaque counting"}, "[4]": {"details": "wt phage i.v., average over entire sampling period (0–250 minutes)"}, "[5]": {"details": "2 × 10^10 phages/animal i.v., CM cannulated rats, result in words"}}, "note": "Entries after “also recorded” stand apart in the source; their conditions may differ."}
{"sequence": "PAGISRELVDKL [wt phage, wild-type T7 phage with backbone 12-mer insert …, reference compound]", "values": [{"measurement": "half-life in CSF", "setting": "[1]; [3]", "result": 25.7, "unit": "min"}, {"measurement": "CSF phage as percentage of the blood T7 phage titer", "setting": "[1]; [4]", "result": "about 1 × 10^−3%"}, {"measurement": "CSF phage as percentage of the initially injected phage", "setting": "[1]; [4]", "result": "~4 × 10^−8%"}, {"measurement": "CSF phage as percentage of the blood T7 phage titer", "setting": "[1]; wt phage i.v., average over entire sampling period (0–250 minutes), listed as wt T7 phages", "result": 0.001, "unit": "%"}, {"measurement": "injected dose of wt phage detected in the blood 10 min post i.v. injection", "setting": "[2]; rat, tail vein i.v., calculated from injected titer and rat blood volume", "result": "about 1%"}, {"measurement": "half-life in blood (slower first-order clearance after initial rapid drop)", "setting": "[2]; [3]", "result": 27.7, "unit": "min"}]}
{"sequence": "RLSSVDSDLSGC [#2077, T7 phage clone displaying …; also synthesized as N-terminally biotinylated transport peptide]", "values": [{"measurement": "CSF concentration course over the sampling time", "setting": "[1]; [5]", "result": "stabilized at a high level"}, {"measurement": "CSF titer change during the first 10 minutes", "setting": "[1]; [5]", "result": "increased during the first 10 minutes"}, {"measurement": "long term CSF profile over 48 hour period", "setting": "[1]; 2 × 10^10 phages/animal i.v., at least three CM cannulated rats, result in words", "result": "rapid increase in CSF and a sustainable level"}, {"measurement": "CSF titer relative to empty control phage (#1779)", "setting": "[1]; 2 × 10^10 phages/animal tail vein i.v., at least 3 CM cannulated rats each", "result": "about 1000 fold"}, {"measurement": "stability in the blood / plasma half-life compared to other hits", "setting": "[2]; [5]", "result": "increased stability in the blood; also recorded: prolonged plasma half-life compared to other hits"}, {"measurement": "phage staining in the brain capillaries (IHC)", "setting": "brain capillaries", "result": "strong staining in the brain capillaries"}]}
